These are literature values, as cited in US20090318550A1, “Emulsions comprising at least one retinoid and benzoyl peroxide” (GALDERMA RESEARCH & DEVELOPMENT, priority 2006, published 2009).

The conditions of data set [1]: in presence of benzoyl peroxide formulation.
For data set [2] the following is noted: for Decomposition time: 40° C.

Read-outs that look alike come from different tables or passages of the source.

With `COc1ccc(-c2ccc3cc(C(=O)O)ccc3c2)cc1C12CC3CC(CC(C3)C1)C2` [adapalene, 6-(3-(1-adamantyl)-4-methoxyphenyl)-2-naphthoic acid], in data set [1] (during 24 hours), the “Decomposition of the retinoid” value is on record as “no decomposition”.

With `O=C(OOC(=O)c1ccccc1)c1ccccc1` [benzoyl peroxide], the Decomposition time in data set [2] (in solution in PEG 400 (0.5 mg/g)) is 1.4 days; in data set [2] (in solution in ethanol), 29 days; in data set [2] (in solution in propylene glycol), 53 days. In data set [2] (in water and propylene glycol, storing for 90 days), the “Decomposition in suspension (dispersed form)” value is reported as “not decomposed”.

With `CC1=C(/C=C/C(C)=C/C=C/C(C)=C/C(=O)O)C(C)(C)CCC1` [tretinoin], the “Decomposition of the retinoid” value in data set [1] (2 hours) is 50%; in data set [1] (4 hours) it was 95%.
